This passage reports EC50, Emax and melting point results from patent US9598434B2, “Benzazepine compound” (Astellas Pharma Inc., priority 2010, dated 2017).

Read-outs that look alike come from different tables or passages of the source.

The EC50 is the concentration at which the effect is half-maximal. As a reminder, the Emax is the maximal effect, on the per cent scale that the assay sets. The melting point is the temperature, or range, at which the solid turns liquid.

The target in one series is T1, human 5-HT2C receptor (Homo sapiens, UniProt P28335).
T1 construct: expressed in transfected cells
T1 sequence (P28335 33-458): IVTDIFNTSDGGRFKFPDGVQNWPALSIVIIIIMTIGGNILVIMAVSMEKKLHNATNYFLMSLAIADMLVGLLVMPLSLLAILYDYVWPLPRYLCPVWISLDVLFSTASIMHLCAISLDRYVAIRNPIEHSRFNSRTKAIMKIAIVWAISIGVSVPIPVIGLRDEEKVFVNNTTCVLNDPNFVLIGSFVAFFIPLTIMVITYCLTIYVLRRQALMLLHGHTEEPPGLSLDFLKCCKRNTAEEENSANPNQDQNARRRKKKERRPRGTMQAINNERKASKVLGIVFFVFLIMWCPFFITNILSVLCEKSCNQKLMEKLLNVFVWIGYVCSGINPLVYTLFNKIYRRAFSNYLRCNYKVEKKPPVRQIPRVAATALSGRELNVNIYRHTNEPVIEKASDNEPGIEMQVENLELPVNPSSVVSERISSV
Briefly: Evaluation of 5-HT2C receptor agonist activity (intracellular calcium increase, FLIPR, CHO cells stably expressing the receptor). Particulars: for Emax: read-out: 5-HT2C agonist activity Emax. It counts as cell-based. The procedure: The agonist activity of the compound of the formula (I) on the 5-HT2C receptor was confirmed by the method shown below.
The human 5-HT2C receptor agonist activity was evaluated by measuring the increase of the ligand-dependent intracellular calcium concentration. CHO cells which stably expressing a human 5-HT2C receptor were used. The receptor-expressing cells were prepared by transfecting the genes of the human 5-HT2C receptor (Accession numbers: AF498983 (5-HT2C)) into CHO cells (dihydrofolic acid-deficient strain, DS Pharma Biomedical Co., Ltd.)) using a pEF-BOS vector (Nucleic Acids Research, vol. 18, No. 17). After transcription, the 5-HT2C is known to be subjected to RNA editing to cause differences in three kinds of amino acids, resulting in fourteen receptor isoforms. Among them, cells stably expressing an INI type of 5-HT2C receptor which had not been subjected to editing were used. Cells used for evaluation were cultured in a 10% fetal bovine serum (FBS)-containing medium (trade name: α-MEM, Invitrogen) at 37° C. and 5% carbon dioxide. On the day before the evaluation, the cells were suspended in a serum-free medium (trade name: CD-CHO, Invitrogen) containing 8 mM L-glutamine (trade name: L-glutamine 200 mM, Invitrogen, added to the medium at a final concentration of 8 mM) and dispensed into a 96-well poly-D-lysine-coated plate (trade name: Biocoat PDL96W Black/Clear, Japan Becton, Dickinson and Company)) at 4×10^4 cells/well and cultured at 37° C. and 5% carbon dioxide overnight. A solution including a washing solution (mixture of Hank's Balanced Salt Solution (HBSS)-sodium hydroxide (NaOH), 20 mM 2-[4-(2-hydroxyethyl)-1-piperazinyl]ethanesulfonic acid (HEPES)-sodium hydroxide (NaOH), 2.5 mM probenecid, and 0.1% bovine serum albumin (BSA)), and a 4 μM fluorescent reagent (trade name: Fluo4-AM, Dojindo Co., Ltd.) was used as a loading buffer and the medium of the 96-well plate which had been cultured overnight was replaced with a loading buffer. After leaving to stand (with light-shielding) at room temperature for 3 hours, the cells were washed with a plate washer (trade name: ELx405, BioTek Instruments, Inc.) in which a washing solution had been set up. The plates of the washed cells were set up in a system for measuring a calcium (Ca) concentration in a cell (trade name: FLIPR, Molecular Devices, Inc.). In this device, a test compound that had been dissolved in dimethyl sulfoxide and diluted in the washing solution at a predetermined concentration was added and set up to measure a change in the Ca concentrations in a cell. The difference between a maximum value and a minimum value in the change of the intracellular Ca concentration was determined and kept as measurement data.
Taking the maximum reaction of the 5-HT (agonist action with addition of 5-HT 10 μM) as 100% and the reaction of a solvent alone as 0%, the efficacy (Emax (%)) and potency (EC50 (nM)) of the present invention compound to the maximum reaction of the 5-HT were calculated with a logistic regression method.
A general note: A change in cytosolic calcium serves as a functional read-out for many receptors and channels.

Setting [1] is: CHO cells stably expressing INI type human 5-HT2C receptor, intracellular Ca increase, logistic regression, read-out: 5-HT2C agonist activity EC50.
The mark [2] stands for this setting: maximum reaction of 5-HT (10 μM) taken as 100%, solvent alone as 0%, CHO cells expressing INI type human 5-HT2C receptor.

In turn, `CCOC(=O)N1CCCc2cc3c(c(C)c21)CCNCC3.O=C(O)C(=O)O` [Example 108] registered a melting point of 185 to 186 °C. For the same compound, the EC50 on human 5-HT2C receptor (setting [1]) stood at 5.9 nM. Also, at human 5-HT2C receptor (CHO), the Emax was determined as 106%.

Regarding `COCCN1CCOc2cc3c(c(C)c21)CCNCC3.O=C(O)/C=C/C(=O)O` [Example 90], the melting point fell in the range of 166 to 170 °C. Also, the EC50 on human 5-HT2C receptor (setting [1]) was 8.3 nM. The Emax on human 5-HT2C receptor (CHO) is 113%.

Turning to `c1c2c(cc3c1OCCN3CC1CC1)CCNCC2` [Example 56], the melting point was 179 to 182 °C. The EC50 on human 5-HT2C receptor (setting [1]) turned out to be 3.2 nM. Moreover, the Emax at human 5-HT2C receptor (setting [2]) amounted to 112%.

The compound `Clc1c2c(cc3c1N(CC1CCC1)CCC3)CCNCC2` [Example 42] returned a melting point of 141 to 143 °C. Further, the half-maximal effective concentration (EC50) at human 5-HT2C receptor was found to be 1.9 nM. Also, the Emax at human 5-HT2C receptor (CHO) was 97%.

Take `CCc1c2c(cc3c1N(CCOC)CCO3)CCNCC2.O=C(O)/C=C/C(=O)O` [Example 98]: the melting point lay in the range of 159 to 163 °C. In addition, the EC50 on human 5-HT2C receptor (setting [1]) is 4.4 nM. The Emax at human 5-HT2C receptor (CHO) was 107%.

`O=C(O)/C=C/C(=O)O.c1ccc(N2CCOc3cc4c(cc32)CCNCC4)cc1` [Example 92] had a melting point of 220 to 222 °C. At human 5-HT2C receptor (setting [1]), the EC50 is 79 nM. Moreover, the Emax at human 5-HT2C receptor (CHO) was found to be 84%.

`c1c2c(c(C3CC3)c3c1OCCN3)CCNCC2` [Example 36] had a melting point of 193 to 197 °C. The EC50 at human 5-HT2C receptor (setting [1]) worked out at 12 nM. The Emax on human 5-HT2C receptor (setting [2]) was determined as 97%.

`COCCN1CCOc2cc3c(c(-c4cccc(C)c4)c21)CCNCC3.O=C(O)/C=C/C(=O)O` [Example 78] showed a melting point of 173 to 176 °C. The EC50 on human 5-HT2C receptor (setting [1]) amounted to 36 nM. Also, the Emax at human 5-HT2C receptor (CHO) is 98%.

For `CN1CCOc2cc3c(c(Br)c21)CCNCC3.O=C(O)/C=C/C(=O)O` [Example 35], the melting point is 200 to 204 °C. Further, the EC50 at human 5-HT2C receptor is 0.42 nM. In addition, the Emax on human 5-HT2C receptor (CHO) is 100%.

Compound `CC(C)CN1CCCc2cc3c(c(Cl)c21)CCNCC3.O=C(O)/C=C/C(=O)O` [Example 2, 11-chloro-1-isobutyl-2,3,4,6,7,8,9,10-octahydro-1H-azepino[4,5-g]quinoline monofumarate] gave a melting point of 159 to 163 °C. Further, the concentration for a half-maximal effect (EC50) at human 5-HT2C receptor (setting [1]) is 0.64 nM. Besides, the Emax at human 5-HT2C receptor (CHO) turned out to be 99%.

Take `CC(C)OCCN1CCOc2cc3c(cc21)CCNCC3` [Example 76]: the EC50 on human 5-HT2C receptor (setting [1]) stood at 1.9 nM. Moreover, at human 5-HT2C receptor (CHO), the Emax was found to be 116%.

Turning to `CCN1CCCc2cc3c(c(Cl)c21)CCNCC3.Cl` [Example 16], the melting point lay in the range of 221 to 223 °C. Moreover, on human 5-HT2C receptor, the EC50 was 1.5 nM. Moreover, the Emax at human 5-HT2C receptor (CHO) stood at 109%.

On to `CC1CNc2cc3c(cc2O1)CCNCC3` (stereo not drawn) [Example 50], for which the melting point fell in the range of 193 to 194 °C. For the same compound, the EC50 on human 5-HT2C receptor came out at 68 nM. Also, the Emax on human 5-HT2C receptor (CHO) was determined as 98%.

For the compound `COCC1(CN2CCOc3cc4c(c(C5CC5)c32)CCNCC4)CC1` [Example 105], the melting point fell in the range of 166 to 167 °C. At human 5-HT2C receptor (setting [1]), the EC50 came out at 8 nM. Further, the Emax at human 5-HT2C receptor (CHO) came out at 111%.

Consider `CC(C)CN1CCOc2cc3c(cc21)CCNCC3` [Example 58], for which, at human 5-HT2C receptor (setting [1]), the EC50 was determined as 4 nM. In addition, the Emax at human 5-HT2C receptor (setting [2]) was found to be 117%.

With `COCCN1CCOc2cc3c(c(-c4ccccc4)c21)CCNCC3.O=C(O)/C=C/C(=O)O`, the melting point lay within 199 to 201 °C.

On to `CCc1c2c(cc3c1N(CCCF)CCO3)CCNCC2` [Example 264], for which the melting point was in the range of 153 to 154 °C.

The compound `O=C(O)CCC(=O)O.O=C(OCCc1ccccc1)N1CCOc2c1cc1c(c2-c2ccccc2)CCNCC1` returned a melting point of 169 to 171 °C.

`COCC(CN1CCOc2cc3c(c(C4CC4)c21)CCNCC3)Oc1ccc(F)cc1F.O=C(O)/C=C/C(=O)O` (stereo not drawn): the melting point was in the range of 150 to 151 °C.

Consider `Cc1c2c(cc3c1N(CCCF)CCO3)CCNCC2.O=C(O)/C=C/C(=O)O`, for which the melting point fell in the range of 187 to 190 °C.

On to `CCc1c2c(cc3c1N(C)CCO3)CCNCC2` [Example 226], for which the melting point is 184 to 185 °C.

`O=C(O)CCC(=O)O.O=C(OCCc1cccc(Cl)c1)N1CCOc2cc3c(cc21)CCNCC3` returned a melting point of 160 to 162 °C.

`O=C(O)/C=C/C(=O)O.c1cc(CN2CCOc3cc4c(c(C5CC5)c32)CCNCC4)c2c(c1)OCCO2` displayed a melting point of 184 to 187 °C.

`Clc1c2c(cc3c1N(CC1CCCC1)CCC3)CCNCC2` [Example 45] displayed a melting point of 151 to 153 °C. On human 5-HT2C receptor, the EC50 stood at 3.9 nM. Also, the Emax at human 5-HT2C receptor (CHO) is 107%.

For the compound `CC(C)C(=O)N1CCCc2cc3c(c(Cl)c21)CCNCC3.Cl` [Example 21], the melting point was in the range of 245 to 249 °C. The EC50 at human 5-HT2C receptor (setting [1]) was found to be 0.81 nM. Further, at human 5-HT2C receptor (CHO), the Emax is 101%.

On to `CO[C@@H](C)CN1CCOc2cc3c(c(C4CC4)c21)CCNCC3.O=C(O)/C=C/C(=O)O`, for which the melting point fell in the range of 135 to 138 °C.

For `c1c2c(c(C3CC3)c3c1OCCN3C[C@H]1CCCO1)CCNCC2` [Example 227], the melting point was 156 to 158 °C.

Compound `O=C(O)CCC(=O)O.O=C(OCCc1ccccc1)N1CCOc2cc3c(cc21)CCNCC3` registered a melting point of 185 to 187 °C.

The compound `COCC(CN1CCOc2cc3c(c(C4CC4)c21)CCNCC3)Oc1ccccc1F.O=C(O)/C=C/C(=O)O` (stereo not drawn) came in with a melting point of 132 to 133 °C.

The compound `COc1cc(OCCN2CCOc3cc4c(c(C5CC5)c32)CCNCC4)c(F)cc1C#N.O=C(O)/C=C/C(=O)O` came in with a melting point of 125 to 128 °C.

Turning to `COCCN1c2cc3c(cc2CCC1(C)C)CCNCC3.O=C(O)/C=C/C(=O)O`, the melting point was in the range of 156 to 158 °C.

In the case of `COCC(CN1CCOc2cc3c(c(C4CC4)c21)CCNCC3)Oc1ccc(F)cc1.O=C(O)/C=C/C(=O)O` (stereo not drawn), the melting point is 138 to 140 °C.

In turn, `O=C(O)CCC(=O)O.c1ccc(OCCN2CCOc3cc4c(cc32)CCNCC4)cc1` displayed a melting point of 132 to 134 °C.

The compound `CC(=O)N1CCCc2cc3c(cc21)CCNCC3.O=C(O)/C=C/C(=O)O` [Example 33] returned a melting point of 159 to 162 °C. In addition, the EC50 on human 5-HT2C receptor (setting [1]) turned out to be 32.9 nM. Also, at human 5-HT2C receptor (CHO), the Emax came out at 94%.

Compound `COCC(F)(F)CN1CCOc2cc3c(cc21)CCNCC3.Cl` displayed a melting point of 172 to 173 °C.

`COCC(F)(F)CN1CCOc2cc3c(c(C4CC4)c21)CCNCC3.O=C(O)/C=C/C(=O)O` showed a melting point of 163 to 165 °C.

In turn, `Cl.O=C1CCc2cc3c(cc2N1Cc1ccccc1)CCNCC3` came in with a melting point of 177 to 180 °C.

For `Cc1c2c(cc3c1N(C[C@H](C)F)CCO3)CCNCC2.O=C(O)/C=C/C(=O)O`, the melting point lay in the range of 165 to 168 °C.
